From US20060106078A1, “Prostamide receptor antagonists” (Allergan, Inc., priority 2003, published 2006)

Tests used:
Format in all cases: cell-based
[1] = tested on: cat iris sphincter (prostamide E2 response); assay: Cat iris sphincter contraction: antagonism of prostamide E2 response; conditions: isolated cat iris sphincter, contractile response relative to 1×10^−7 M PGF2α, 30 min antagonist incubation; FIG. 4
Protocol: (§1) The compounds of Examples 1 and 2 were tested for prostamide antagonist activity as follows:
(§2) The smooth muscle tension of isolated tissue preparations was measured isometrically with force displacement transducers (Grass FT-03) and recorded on a Grass polygraph (Model 7G). The organ baths contained Krebs solution maintained at 37° C. and gassed with 95% O2: 5% CO2 to give a pH of 7.4. The Krebs solution had the following composition (mM): NaCl, 118.0; KCl, 4.7; KH2PO4, 1.2; CaCl2, 1.9; MgSO4, 1.18; NaHCO3, 25.0; glucose, 11.7; indomethacin, 0.001.
(§3) Adult domestic cats were sacrificed by intravenous overdose of sodium pentobarbitol (Anthony, Arcadia, Calif., USA). The eyes were enucleated immediately and placed on ice. The iris sphincter from each eye was dissected to provide two strips ˜3 mm wide and 15-20 mm long. The sphincter muscle was mounted vertically under 50 mg tension in a jacketed 10 ml organ bath. A 60 min. equilibration period was allowed before commencing each experiment. The response to 1×10^−7 M PGF2α was determined at the beginning of each experiment as a reference. After complete washout, and return to baseline tension, tissues were allowed to re-equilibrate for 30 min. Antagonist or vehicle were then added. […] Activity of test compounds was determined as contractile responses and expressed relative to the reference standard 1×10^−7 M PGF2α.

[2] = tested on: cat iris sphincter (PGD2 response); assay: Cat iris sphincter contraction: effect on PGD2 response; conditions: isolated cat iris sphincter, contractile response relative to 1×10^−7 M PGF2α, 30 min antagonist incubation; FIG. 3
Protocol: as §1, §2, §3

[3] = tested on: cat iris sphincter (PGE2 response); assay: Cat iris sphincter contraction: effect on PGE2 response; conditions: isolated cat iris sphincter, contractile response relative to 1×10^−7 M PGF2α, 30 min antagonist incubation; FIG. 4
Protocol: as §1, §2, §3

[4] = tested on: cat iris sphincter (prostamide D2 response); assay: Cat iris sphincter contraction: antagonism of prostamide D2 response; conditions: isolated cat iris sphincter, contractile response relative to 1×10^−7 M PGF2α, 30 min antagonist incubation; FIG. 3
Protocol: as §1, §2, §3

[5] = tested on: cat iris sphincter (prostamide F2α response); assay: Cat iris sphincter contraction: antagonism of prostamide F2α response; conditions: isolated cat iris sphincter, contractile response relative to 1×10^−7 M PGF2α, 30 min antagonist incubation; FIG. 1, FIG. 2
Protocol: as §1, §2, §3

[6] = tested on: cat iris sphincter (PGF2α response); assay: Cat iris sphincter contraction: effect on PGF2α response; conditions: isolated cat iris sphincter, contractile response relative to 1×10^−7 M PGF2α, 30 min antagonist incubation; FIG. 1, FIG. 2
Protocol: as §1, §2, §3

Row | SMILES | prostamide E2 antagonist activity (effect on response curve of prostamide E2) [1] | effect on response curve of PGD2 [2] | effect on response curve of PGE2 [3] | prostamide D2 antagonist activity (effect on response curve of prostamide D2) [4] | prostamide F2α antagonist activity (effect on response curve of prostamide F2α) [5] | effect on response curve of PGF2α [6]
1 | CCNC(=O)CCc1ccc(F)cc1CC1C2CCC(O2)C1c1nc(C(=O)NCCCCC2CCCCC2)co1 (centres unmarked) [Example 1, 2-{3-[2-(2-Ethylcarbamoyl-ethyl)-5-fluoro-benzyl]-7-oxa-bicyclo[2.2.1]hept-2-yl}-oxazole-4-carboxylic acid (4-cyclohexyl-butyl)-amide] | displaces the response curve | does not effect the response curve | does not effect the response curve | displaces the response curve | displaces the response curve | does not effect the response curve
2 | O=C(CCc1ccc(F)cc1CC1C2CCC(O2)C1c1nc(C(=O)NCCCCC2CCCCC2)co1)NCCO (centres unmarked) [Example 2, 2-(3-{5-Fluoro-2-[2-(2-hydroxy-ethycarbamoyl)-ethyl]-benzyl}-7-oxa-bicyclo[2.2.1]hept-2-yl)-oxazole-4-carboxylic acid (4-cyclohexyl-butyl)-amide] | – | – | – | – | displaces the response curve | does not effect the response curve
